The numbers were not newly measured in patent publication US10188610B2, “Prolonged-release diphenidol composition” (INVEKRA, S.A.P.I. DE C.V., priority 2013, dated 2019), which cites them from elsewhere.

Structures can show the parent of a compound that is named as a salt.

The conditions of the series: after oral administration.

`OC(CCCN1CCCCC1)(c1ccccc1)c1ccccc1` [Diphenidol hydrochloride, α,α-diphenil-1-piperidinebutanol]: the half life is 4 h.
